Assay results: US8597688B2, “Pesticidal mixtures comprising isoxazoline compounds II” (BASF SE, priority 2008, dated 2013)
Read-outs that look alike come from different tables or passages of the source.

Experiments:
Type in all cases: cell-based
Botrytis cinerea = assay: Activity against the grey mold Botrytis cinerea in the microtiterplate test (Botrci); conditions: 7 days
Pyricularia oryzae = conditions: single active compound, Pyrior microtiter test
Phytophthora infestans = conditions: day 7
Septoria tritici = assay: Activity against leaf blotch on wheat caused by Septoria tritici (Septtr), microtiter test; conditions: day 7

## Cc1cc(C2=NOC(c3cc(Cl)cc(Cl)c3)(C(F)(F)F)C2)ccc1C(=O)NCC(=O)NCC(F)(F)F (stereo not drawn) [C.I.240]
Botrytis cinerea; 0.063 ppm
  Observed efficacy: 0%
Botrytis cinerea; 16 ppm
  Observed efficacy: 18%
Pyricularia oryzae; concentration 1 ppm
  Observed efficacy: 0
Pyricularia oryzae; concentration 4 ppm
  Observed efficacy: 11
Phytophthora infestans; 4 ppm
  Observed efficacy: 6%
Phytophthora infestans; 16 ppm
  Observed efficacy: 15%
Septoria tritici; 4 ppm
  Observed efficacy: 0%

## O=C(CNC(=O)c1ccc(C2=NOC(c3cc(Cl)cc(Cl)c3)(C(F)(F)F)C2)c2ccccc12)NCC(F)(F)F (stereo not drawn) [C.I.402]
Pyricularia oryzae; concentration 1 ppm
  Observed efficacy: 6
Pyricularia oryzae; concentration 4 ppm
  Observed efficacy: 35
Septoria tritici; 4 ppm
  Observed efficacy: 2%
Septoria tritici; 63 ppm
  Observed efficacy: 0%

## COC(=O)Nc1nc2ccccc2[nH]1 [Carbendazim]
Pyricularia oryzae; concentration 0.25 ppm
  Observed efficacy: 18

## N#Cc1c(Cl)c(Cl)c(Cl)c(C#N)c1Cl [Chlorothalonil, 2,4,5,6-tetrachloroisophthalonitrile, reference compound]
Botrytis cinerea; 1 ppm
  Observed efficacy: 43%
Phytophthora infestans; 1 ppm
  Observed efficacy: 53%

## Fc1ccc([C@]2(Cn3cncn3)O[C@H]2c2ccccc2Cl)cc1 [Epoxiconazol]
Pyricularia oryzae; concentration 0.063 ppm
  Observed efficacy: 0

## CC1(C(=O)Nc2ccc(O)c(Cl)c2Cl)CCCCC1 [Fenhexamid, N-(2,3-dichloro-4-hydroxyphenyl)-1-methylcyclohexanecarboxamide, reference compound]
Botrytis cinerea; 0.016 ppm
  Observed efficacy: 51%

## CO/N=C(/C1=NOCCO1)c1ccccc1Oc1ncnc(Oc2ccccc2Cl)c1F [Fluoxastrobin, (E)-{2-[6-(2-chlorophenoxy)-5-fluoropyrimidin-4-yloxy]phenyl}(5,6-dihydro-1,4,2-dioxazin-3-yl)methanone O-methyloxime, reference compound]
Septoria tritici; 0.25 ppm
  Observed efficacy: 68%

## CC(C)OC(=O)N[C@H](C(=O)N[C@H](C)c1nc2ccc(F)cc2s1)C(C)C [Fubenthiavalicarb (Benthivalicarb), isopropyl {(S)-1-[(1R)-1-(6-fluorobenzothiazol-2-yl)-ethylcarbamoyl]-2-methylpropyl}carbamate, reference compound]
Septoria tritici; 4 ppm
  Observed efficacy: 0%

## CC(C)NC(=O)N1CC(=O)N(c2cc(Cl)cc(Cl)c2)C1=O [Iprodion]
Pyricularia oryzae; concentration 0.24 ppm
  Observed efficacy: 4

## CO/C=C(/C(=O)OC)c1ccccc1COc1cccc(C(F)(F)F)n1 [Picoxystrobin]
Pyricularia oryzae; concentration 0.063 ppm
  Observed efficacy: 60

## COC(=O)N(OC)c1ccccc1COc1ccn(-c2ccc(Cl)cc2)n1 [Pyraclostrobin, methyl N-{2-[1-(4-chlorophenyl)-1H-pyrazol-3-yloxymethyl]phenyl}(N-methoxy)carbamate, reference compound]
Pyricularia oryzae; concentration 0.004 ppm
  Observed efficacy: 26
Phytophthora infestans; 0.016 ppm
  Observed efficacy: 13%

## CON=C(C(=O)OC)c1ccccc1CON=C(C)c1cccc(C(F)(F)F)c1 [Trifloxystrobin]
Pyricularia oryzae; concentration 0.063 ppm
  Observed efficacy: 32

## Mancozeb
Pyricularia oryzae; concentration 1 ppm
  Observed efficacy: 36
